In data set [1] the test system is Human coronary artery smooth muscle cells. Briefly: In vitro growth of coronary artery smooth muscle. Type of data set: cell-based. From the text:
(§1) As set forth in Table 7 below, all malignant tumors evaluated in tissue culture, endothelial cells and vascular smooth muscle cells were sensitive to inhibition. Thus, compound 1436 has application in the control of growth factor dependent proliferation of many types of tissue.
Aminosterols of the invention may also have utility in inhibiting the growth factor mediated proliferation of smooth muscle within the artery. Following coronary angioplasty, reocclusion commonly occurs, secondary to reparative proliferation of the vascular smooth muscle within the wall of the surgically manipulated blood vessel. This process generally takes place over the course of 7-10 days. To evaluate whether an agent could prevent the growth factor mediated proliferation of smooth muscle within the artery, compound 1436 was evaluated in vitro for its effect on the proliferation of human coronary artery smooth muscle. Results for compound 1436 are shown in FIG. 13, and those for squalamine are shown in FIG. 14, with FIG. 15 being a composite logarithmic plot.

A further data set has as its system HIV clinical isolate. Description: HIV replication in PHA-stimulated lymphocytes (P-24 antigen Elisa). Type of data set: cell-based. The note with it: for P-24 Elisa: 7 days. Set-up: P-24 Elisa: unit not given here. Here is the method:
PHA-stimulated lymphocytes were inoculated with a clinical isolate of HIV at a multiplicity of infection of […]. Fresh lymphocytes were obtained and stimulated with PHA and IL-2. After 3 days, 1000 TCID of virus-(HIV clinical isolate) were applied for 1 hour and there was a M.O.I. of 1:10. The cells were washed and in a dose response fashion, and drug in media was applied. After 3 days, the supernatant was exchanged with ½ volume of fresh media and ½ the volume of fresh drug. After 7 days, detergent was added, and HIV P-24 Antigen was determined by Elisa. Viability of the lymphocytes was evaluated along with appearance of the viral gene product p24.

The subject of data set [2] is heart of a juvenile Xenopus laevis frog. Briefly: Isolated frog heart, persistence of beating ex vivo. The note with it: 10 μg/ml; Krebs-Ringer buffer with adrenaline 50 μg/ml; without compound about one hour. Here is the method: To determine if compound 1436 has such utility, the following experiment was performed. The heart of a juvenile Xenopus laevis frog was dissected from the living animal. The heart was placed into a Petri dish containing Krebs-Ringer buffer with adrenaline 50 μg/ml, and examined with the naked eye. At room temperature, the heart continued beating in a coordinated fashion (atrial beat followed by ventricular beat) for about one hour. In the presence of 10 μg/ml of compound 1436, spontaneous beating persisted up to 24 hours.

Data set [3] is described as follows: Growth and weight gain in normal growing mice. Format: in vivo. The note with it: C57B mice. Here is the method:
Animals were dosed QTD (i.p.) starting on Day 1. […] Animals receiving 5 mg/kg QTD experienced about a 50% reduction in growth, compared to untreated controls, while animals receiving 1 mg/kg QTD were affected by about 10%. […] They appeared very much like hypophysectamized animals might appear.

A further data set deals with VX2 carcinoma. Description: Tumor-induced corneal neovascularization in rabbits. Format: in vivo, rabbit. Particulars: pellet of ELVAX 40 P. An excerpt: The implantation of VX2 carcinoma into the rabbit cornea results in the induction of new blood vessels within several days (Tamargo et al., Cancer Research 51, 1991, 672-675). It is believed that this carcinoma secretes growth factors that stimulate new blood-vessel growth. Thus, this model is indicative in vivo evidence of therapeutic utility in the treatment of pathological disorders of vascularization, including the metastatic spread of tumors, diabetic retinopathy, macular degeneration, and rheumatoid arthritis.
This experiment followed the published protocol—tumor was implanted adjacent to a polymer containing a concentration of the agent to be evaluated. The polymer releases the agent slowly in the immediate neighborhood of the tumor, providing sustained high local concentrations of the agent. In this experiment, squalamine introduced into a pellet of ELVAX 40 P (DuPont, Wilmington, Del.) inhibited new blood vessel formation by about 60% at days 7 and 14, and by about 25% at day 21.

Data set [4] deals with human foreskin fibroblasts. Briefly: Cell growth with membrane-active agents (absorbance at 600 nm). Format: cell-based. The note with it: 10 μg/ml. Here is the method:
(§2) Cell growth was measured by absorbance at 600 nm.

The subject of data set [5] is bovine pulmonary endothelial cells. Described as above. Format: cell-based. Particulars: 1 μg/ml. Here is the method: as §2
Data set [6] deals with human epithelial cell line MCF 10A. Described as above. Format: cell-based. Particulars: 10 μg/ml. Here is the method: as §2
Another data set concerns human melanoma 1205Lu. Briefly: Growth of human melanoma 1205Lu in RAG-1 mice. Particulars: 10, 20, 40 mg/kg/d; started when tumors about 0.1 ml. Type of data set: in vivo. An excerpt: As apparent from FIG. 5, melanoma 1205Lu develops aggressively in RAG-1 mice after implantation.
A further data set deals with Murine B16 melanoma. Description: In vitro cell growth inhibition (assay of Baker et al.). Type of data set: cell-based. The note with it: except at very high concentrations.
Source text: as §1

In data set [7] the test system is chorioallantoic membrane capillaries. Briefly: Chorioallantoic membrane (CAM) model of capillary growth. The note with it: for Percentage positive, Assay 1 / Percentage positive, Assay 2 / Percentage positive, Mean: 3-day embryo. Type of data set: in vivo, chick. From the text: The growing capillaries within the chorioallantoic membrane model (CAM model) have been used as a system in which to evaluate the effect of agents on their potential to inhibit new vessel growth. Neovascularization occurs most aggressively over the first week of embryonic development. Thereafter capillary growth is characterized by principally “elongation” rather than “de novo” formation. In the standard assay, agents are applied locally to a region of the embryo over which neovascularization will occur. Agents are assessed by their ability to inhibit this process, as evaluated by visual examination about 7 days after application. […] The assay utilized is described in detail in Auerbach et al., Pharm. Ther. 51, 1991, 1-11.

A short description of a further data set: Mouse IV PK study. The note with it: in vivo, i.v., HPLC, read-out: Half-life of clearance from the blood stream. Here is the method:
To assess clearance, a mouse IV PK study was performed for compound 319 and squalamine. The compound was administered i.v. and blood samples were taken every 10 minutes. The concentration of the administered steroid was determined by HPLC analysis.

Setting [8] is: 20 μg applied, some vascular irritation noted.
[9] abbreviates: 40 μg applied, some vascular irritation noted.

Marks after values point to notes of the source that are not given here.

As a reminder, the inhibition is the share of the control response that was lost under treatment. For `CC(CC[C@@H](OS(=O)(=O)O)C(C)C)[C@H]1CCC2C3C(CC[C@@]21C)[C@@]1(C)CC[C@H](NCCCNCCCCNCCCN)C[C@@H]1C[C@H]3O` (stereo partly shown) [Compound 1436], the “Concentration effective in suppressing growth” value in data set [1] is 10 to 12 µg/mL. In [1], the “Concentration maintaining cells quiescent without loss of viability” value is given as “about 11 μg/ml”. Further, the “P-24 Elisa” value in the data set on HIV clinical isolate (Conc. 0.5 μM) was 40561; in the data set on HIV clinical isolate (Conc. 1 μM) it was 7464; in the data set on HIV clinical isolate (Conc. 5 μM), 3426; in the data set with HIV clinical isolate (Conc. 10 μM), 421; in the data set with HIV clinical isolate (Conc. 20 μM), 9. For the same compound, the inhibition at 10 µg/mL in the data set with HIV clinical isolate (Human immunodeficiency virus 1, Lymphocyte, 10 μg/ml, read-out: Inhibition of antigen synthesis) came out at 97%. Moreover, the “Persistence of spontaneous beating” value in data set [2] is given as “up to 24 hours”. Further, the “Reduction in growth compared to untreated controls” value in data set [3] (1 mg/kg QTD i.p.) is reported as “about 10%”; in [3] (5 mg/kg QTD i.p.) it was approximately 50%. For the same compound, in data set [3] (10 mg/kg QTD i.p., after 6 doses, about 1 month), the “Suppression of growth of mice” value was “growth was almost completely inhibited”.

In general, half-life refers to the time needed for the level to fall by half in the phase considered. Turning to `CC(CC[C@@H](OS(=O)(=O)O)C(C)C)[C@H]1CCC2C3C(CC[C@@]21C)[C@@]1(C)CC[C@H](NCCCNCCCCN)C[C@@H]1C[C@H]3O` (stereo partly shown) [squalamine], the “Inhibition of new blood vessel formation” value with VX2 carcinoma (day 21) is “about 25%”; in the data set on VX2 carcinoma (days 7 and 14) it was “about 60%”. The results for the “Effect on cell growth” value in [4], in data set [5] and in data set [6] were “no effect on the growth”, “inhibited the growth” and “no effect on the growth”, respectively. Also, in the data set with human melanoma 1205Lu, the “Suppression of tumor growth” value is on record as “suppress the growth of melanoma 1205Lu in RAG-1 mice in a dose-dependent fashion”. Further, the “Cytostatic activity against B16 in culture” value in the data set with Murine B16 melanoma is given as “minimal cytostatic activity”. In addition, the “Percentage positive, Assay 1” value in [7] (0.65 μg applied) was 28%; in data set [7] (1.25 μg applied), 18%; in [7] (2.5 μg applied), 35%; in data set [7] (5.0 μg applied), 91%; in data set [7] (setting [8]), 52* %; in data set [7] (setting [9]), 50* %. The “Percentage positive, Assay 2” value was 18% in data set [7] (1.25 μg applied); 18% in [7] (2.5 μg applied); 57% in data set [7] (5.0 μg applied); 58* % in data set [7] (setting [8]); 13* % in data set [7] (setting [9]). Also, the “Percentage positive, Mean” value in data set [7] (1.25 μg applied) is reported as 18%; in [7] (2.5 μg applied), 27%; in [7] (5.0 μg applied) it was 74%; in [7] (20 μg applied), 55%; in data set [7] (40 μg applied) it was 32%. Also, the Percentage positive in data set [7] (13-day embryo, 5.0 μg applied) is reported as 0/26. The half-life in the data set “Mouse IV PK study” was approximately 35 min.

Source of the values: US6962909B2, “Treatment of neovascularization disorders with squalimine” (Genaera Corporation, priority 1995, dated 2005).
